# Results from paper PMC5218480 (PLoS ONE, 2017).
# System: MV-4-11 cells
# Experiment: Gene expression microarray analysis (Affymetrix PrimeView) and GSEA
# Type: cell-based, human
# Design: RFU PODN (11730768_x_at) / Fold change /veh PODN (11730768_x_at) / RFU LINC00158 (11744669_a_at) / Fold change /veh LINC00158 (11744669_a_at) / RFU DUSP10 (11751237_a_at) / Fold change /veh DUSP10 (11751237_a_at) / RFU ID3 (11757404_x_at) / Fold change /veh ID3 (11757404_x_at) / RFU PLEKHG5 (11737974_s_at) / Fold change /veh PLEKHG5 (11737974_s_at) / RFU LRRC4B (11730491_at) / Fold change /veh LRRC4B (11730491_at) / RFU GIMAP4 (11747438_a_at) / Fold change /veh GIMAP4 (11747438_a_at) / RFU KRT8 (11758183_x_at) / Fold change /veh KRT8 (11758183_x_at) / RFU CNN1 (11734310_a_at) / Fold change /veh CNN1 (11734310_a_at) / RFU VPS37D (11726825_at) / Fold change /veh VPS37D (11726825_at) / RFU C10orf10 (11716522_x_at) / Fold change /veh C10orf10 (11716522_x_at) / RFU KIR2DL2 /// KIR2DL4 /// KIR2DL5A /// KIR2DL5B /// KIR2DS1 /// KIR2DS2 /// KIR2DS3 /// KIR2DS4 /// KIR3DL3 /// KIR3DL3 /// KIR3DS1 (11738374_at) / Fold change /veh KIR2DL2 /// KIR2DL4 /// KIR2DL5A /// KIR2DL5B /// KIR2DS1 /// KIR2DS2 /// KIR2DS3 /// KIR2DS4 /// KIR3DL3 /// KIR3DL3 /// KIR3DS1 (11738374_at) / RFU C1QL1 (11718748_at) / Fold change /veh C1QL1 (11718748_at) / RFU TMPRSS4 (11747572_a_at) / Fold change /veh TMPRSS4 (11747572_a_at) / RFU HAMP (11756126_x_at) / Fold change /veh HAMP (11756126_x_at) / RFU RNFT2 (11725882_a_at) / Fold change /veh RNFT2 (11725882_a_at) / RFU NR4A2 (11747474_a_at) / Fold change /veh NR4A2 (11747474_a_at) / RFU ABCC12 (11746883_a_at) / Fold change /veh ABCC12 (11746883_a_at) / RFU TMEM136 (11760407_x_at) / Fold change /veh TMEM136 (11760407_x_at) / RFU CLDN22 /// WWC2 (11732394_at) / Fold change /veh CLDN22 /// WWC2 (11732394_at) / RFU HLA-DPB1 (11760878_x_at) / Fold change /veh HLA-DPB1 (11760878_x_at) / RFU SPINT1 (11716480_a_at) / Fold change /veh SPINT1 (11716480_a_at) / RFU GAP43 (11754022_s_at) / Fold change /veh GAP43 (11754022_s_at) / RFU A4GNT (11735810_at) / Fold change /veh A4GNT (11735810_at) / RFU PRB3 (11715151_x_at) / Fold change /veh PRB3 (11715151_x_at) / RFU TUBB4B (11761932_at) / Fold change /veh TUBB4B (11761932_at) / RFU CAPN14 (11732068_a_at) / Fold change /veh CAPN14 (11732068_a_at) / RFU TMCC2 (11721928_a_at) / Fold change /veh TMCC2 (11721928_a_at) / RFU IRGQ (11745062_a_at) / Fold change /veh IRGQ (11745062_a_at) / RFU FAM174B (11720279_a_at) / Fold change /veh FAM174B (11720279_a_at) / RFU TMPRSS4 (11748680_a_at) / Fold change /veh TMPRSS4 (11748680_a_at) / RFU FAM212B (11763350_a_at) / Fold change /veh FAM212B (11763350_a_at) / RFU PLEKHG5 (11743358_a_at) / Fold change /veh PLEKHG5 (11743358_a_at) / RFU ZSCAN30 (11745921_a_at) / Fold change /veh ZSCAN30 (11745921_a_at) / RFU CMKLR1 (11741424_a_at) / Fold change /veh CMKLR1 (11741424_a_at) / RFU LOC101060620 /// MAPK8IP1 (11723275_at) / Fold change /veh LOC101060620 /// MAPK8IP1 (11723275_at) / RFU SPTSSB (11747773_x_at) / Fold change /veh SPTSSB (11747773_x_at) / RFU PRSS12 (11739890_at) / Fold change /veh PRSS12 (11739890_at) / RFU BIN1 (11741810_x_at) / Fold change /veh BIN1 (11741810_x_at) / RFU WNT11 (11732464_a_at) / Fold change /veh WNT11 (11732464_a_at) / RFU C10orf10 (11716521_a_at) / Fold change /veh C10orf10 (11716521_a_at) / RFU C5orf56 (11738089_at) / Fold change /veh C5orf56 (11738089_at) / RFU CYB561 (11721691_x_at) / Fold change /veh CYB561 (11721691_x_at) / RFU ANKRD19P (11752326_a_at) / Fold change /veh ANKRD19P (11752326_a_at) / RFU OR2T12 /// OR2T33 /// OR2T8 (11738714_s_at) / Fold change /veh OR2T12 /// OR2T33 /// OR2T8 (11738714_s_at) / RFU VCAN (11748164_a_at) / Fold change /veh VCAN (11748164_a_at) / RFU JSRP1 (11732532_at) / Fold change /veh JSRP1 (11732532_at) / RFU KRTAP10-11 (11738290_x_at) / Fold change /veh KRTAP10-11 (11738290_x_at) / RFU MYO3A (11730013_a_at) / Fold change /veh MYO3A (11730013_a_at) / RFU EBF3 (11725865_a_at) / Fold change /veh EBF3 (11725865_a_at) / RFU CAMK2N1 (11719241_x_at) / Fold change /veh CAMK2N1 (11719241_x_at) / RFU C5orf56 (11738088_a_at) / Fold change /veh C5orf56 (11738088_a_at) / RFU OLFML3 (11715873_a_at) / Fold change /veh OLFML3 (11715873_a_at) / RFU LOC100653217 /// NTM (11731650_a_at) / Fold change /veh LOC100653217 /// NTM (11731650_a_at) / RFU MAPK11 (11762145_a_at) / Fold change /veh MAPK11 (11762145_a_at) / RFU FIZ1 (11724087_x_at) / Fold change /veh FIZ1 (11724087_x_at) / RFU OASL (11726364_x_at) / Fold change /veh OASL (11726364_x_at) / RFU SOX15 (11748057_x_at) / Fold change /veh SOX15 (11748057_x_at) / RFU CD79A (11719716_a_at) / Fold change /veh CD79A (11719716_a_at) / RFU HIST1H1D (11736915_at) / Fold change /veh HIST1H1D (11736915_at) / RFU CASKIN2 (11723855_a_at) / Fold change /veh CASKIN2 (11723855_a_at) / RFU LOC730098 (11760151_x_at) / Fold change /veh LOC730098 (11760151_x_at) / RFU OR4N2 (11742367_at) / Fold change /veh OR4N2 (11742367_at) / RFU PRRT2 (11749266_a_at) / Fold change /veh PRRT2 (11749266_a_at) / RFU SNX32 (11753110_a_at) / Fold change /veh SNX32 (11753110_a_at) / RFU CDHR5 (11726645_a_at) / Fold change /veh CDHR5 (11726645_a_at) / RFU RCAN1 (11760418_a_at) / Fold change /veh RCAN1 (11760418_a_at) / RFU FAM167A (11723789_a_at) / Fold change /veh FAM167A (11723789_a_at) / RFU FAM26E (11764081_at) / Fold change /veh FAM26E (11764081_at) / RFU ISYNA1 (11749810_s_at) / Fold change /veh ISYNA1 (11749810_s_at) / RFU ACY1 (11761880_at) / Fold change /veh ACY1 (11761880_at) / RFU 11764098_at / Fold change /veh 11764098_at / RFU SAMD14 (11745864_x_at) / Fold change /veh SAMD14 (11745864_x_at) / RFU NPB (11741838_a_at) / Fold change /veh NPB (11741838_a_at) / RFU TMPRSS6 (11731388_a_at) / Fold change /veh TMPRSS6 (11731388_a_at) / RFU KRTAP10-2 (11738614_at) / Fold change /veh KRTAP10-2 (11738614_at) / RFU ARHGAP8 /// PRR5-ARHGAP8 (11727945_x_at) / Fold change /veh ARHGAP8 /// PRR5-ARHGAP8 (11727945_x_at) / RFU KRTAP5-7 /// NADSYN1 (11734609_at) / Fold change /veh KRTAP5-7 /// NADSYN1 (11734609_at) / RFU RASL12 (11751679_a_at) / Fold change /veh RASL12 (11751679_a_at) / RFU CDKN2B (11736163_a_at) / Fold change /veh CDKN2B (11736163_a_at) / RFU PRF1 (11729649_at) / Fold change /veh PRF1 (11729649_at) / RFU, ZNF638 /// ZNF638-IT1 / Fold change vs veh, ZNF638 /// ZNF638-IT1 / RFU, PANK3 / Fold change vs veh, PANK3 / RFU, SH3YL1 / Fold change vs veh, SH3YL1 / RFU, ZEB2 / Fold change vs veh, ZEB2 / RFU, NRIP1 / Fold change vs veh, NRIP1 / RFU, PTTG1IP / Fold change vs veh, PTTG1IP / RFU, CAPN2 / Fold change vs veh, CAPN2 / RFU, MED14 / Fold change vs veh, MED14 / RFU, SNORA58 / Fold change vs veh, SNORA58 / RFU, C1orf63 / Fold change vs veh, C1orf63 / RFU, LRRFIP1 / Fold change vs veh, LRRFIP1 / RFU, NDUFAF7 / Fold change vs veh, NDUFAF7 / RFU, SLC12A2 / Fold change vs veh, SLC12A2 / RFU, IBTK / Fold change vs veh, IBTK / RFU, ESF1 / Fold change vs veh, ESF1 / Fold change vs veh, TMEM50B / RFU, TAOK1 / Fold change vs veh, TAOK1 / RFU, ACBD3 / Fold change vs veh, ACBD3 / RFU, TMA16 / Fold change vs veh, TMA16 / RFU, RWDD3 / Fold change vs veh, RWDD3 / RFU, BCAT1 / Fold change vs veh, BCAT1 / RFU, EDEM3 / Fold change vs veh, EDEM3 / RFU, TMEM33 / Fold change vs veh, TMEM33 / RFU, WDR75 / Fold change vs veh, WDR75 / RFU, AHCTF1 / Fold change vs veh, AHCTF1 / RFU, TFRC / Fold change vs veh, TFRC / RFU, ZDHHC17 / Fold change vs veh, ZDHHC17 / RFU, NOM1 / Fold change vs veh, NOM1 / RFU, ARL8B / Fold change vs veh, ARL8B / RFU, ZBTB11 / Fold change vs veh, ZBTB11 / RFU, TAMM41 / Fold change vs veh, TAMM41 / RFU, KIAA1704 /// LOC100996395 / Fold change vs veh, KIAA1704 /// LOC100996395 / RFU, ING1 / Fold change vs veh, ING1 / RFU, TRMT61B / Fold change vs veh, TRMT61B / RFU, FUBP3 / Fold change vs veh, FUBP3 / RFU, TP53 / Fold change vs veh, TP53 / RFU, TNKS2 / Fold change vs veh, TNKS2 / RFU, ZFP14 / Fold change vs veh, ZFP14 / RFU, ACTR2 / Fold change vs veh, ACTR2 / RFU, PPP3R1 / Fold change vs veh, PPP3R1 / RFU, PIK3R1 / Fold change vs veh, PIK3R1 / RFU, HNRNPA1 / Fold change vs veh, HNRNPA1 / RFU, RNF170 / Fold change vs veh, RNF170 / RFU, ZNF28 / Fold change vs veh, ZNF28 / RFU, RNGTT / Fold change vs veh, RNGTT / RFU, OGT / Fold change vs veh, OGT / RFU, BRD1 / Fold change vs veh, BRD1 / RFU, MARS / Fold change vs veh, MARS / RFU, ZNF655 / Fold change vs veh, ZNF655 / RFU, FAHD1 / Fold change vs veh, FAHD1 / RFU, BDP1 / Fold change vs veh, BDP1 / RFU, LRRCC1 / Fold change vs veh, LRRCC1 / RFU, ARID1A / Fold change vs veh, ARID1A / RFU, ZNF146 / Fold change vs veh, ZNF146 / RFU, ZNF330 / Fold change vs veh, ZNF330 / RFU, GPN3 / Fold change vs veh, GPN3 / RFU, C9orf123 / Fold change vs veh, C9orf123 / RFU, N4BP2L2 / Fold change vs veh, N4BP2L2 / RFU, ARFIP1 / Fold change vs veh, ARFIP1 / RFU, FAM179B / Fold change vs veh, FAM179B / RFU, BCL10 / Fold change vs veh, BCL10 / RFU, UHRF1BP1L / Fold change vs veh, UHRF1BP1L / RFU, BET1 / Fold change vs veh, BET1 / RFU, CNOT2 / Fold change vs veh, CNOT2 / RFU, ZNF268 / Fold change vs veh, ZNF268 / Fold change vs veh, ZNF507 / RFU, DGCR2 / Fold change vs veh, DGCR2 / RFU, WDSUB1 / Fold change vs veh, WDSUB1 / Fold change vs veh, HSP90B1 /// MIR3652 / RFU, ADSS / Fold change vs veh, ADSS / RFU, GK / Fold change vs veh, GK / RFU, ZNF148 / Fold change vs veh, ZNF148 / RFU, TAF9 / Fold change vs veh, TAF9 / RFU, SLC1A5 / Fold change vs veh, SLC1A5 / RFU, SLMO2 / Fold change vs veh, SLMO2 / RFU, ABCC4 / Fold change vs veh, ABCC4 / RFU, LOC101060439 /// RAP1B / Fold change vs veh, LOC101060439 /// RAP1B / RFU, RFX7 / Fold change vs veh, RFX7 / RFU, GTPBP10 / Fold change vs veh, GTPBP10 / RFU, CNEP1R1 / Fold change vs veh, CNEP1R1 / RFU, BIVM-ERCC5 /// ERCC5 / Fold change vs veh, BIVM-ERCC5 /// ERCC5 / RFU, ILF3 / Fold change vs veh, ILF3 / RFU 11762660_at / Fold change /veh 11762660_at / RFU VCAN (11757783_s_at) / Fold change /veh VCAN (11757783_s_at) / RFU DDX43 (11728927_at) / Fold change /veh DDX43 (11728927_at) / RFU KRT8 (11758188_x_at) / Fold change /veh KRT8 (11758188_x_at) / RFU NKD1 (11759106_at) / Fold change /veh NKD1 (11759106_at) / RFU SRD5A1 (11742802_a_at) / Fold change /veh SRD5A1 (11742802_a_at) / RFU TPSAB1 /// TPSB2 (11721975_s_at) / Fold change /veh TPSAB1 /// TPSB2 (11721975_s_at) / RFU GSTM3 (11746129_a_at) / Fold change /veh GSTM3 (11746129_a_at) / RFU IL23R (11737362_x_at) / Fold change /veh IL23R (11737362_x_at) / RFU TMEM51 (11727254_a_at) / Fold change /veh TMEM51 (11727254_a_at) / RFU PIWIL2 (11732686_x_at) / Fold change /veh PIWIL2 (11732686_x_at) / RFU ORM1 (11744905_x_at) / Fold change /veh ORM1 (11744905_x_at) / RFU CCDC152 (11743942_at) / Fold change /veh CCDC152 (11743942_at) / RFU ECM1 (11717891_a_at) / Fold change /veh ECM1 (11717891_a_at) / RFU IL23R (11748794_a_at) / Fold change /veh IL23R (11748794_a_at) / RFU TNFAIP8L3 (11732012_x_at) / Fold change /veh TNFAIP8L3 (11732012_x_at) / RFU MBOAT4 (11741988_at) / Fold change /veh MBOAT4 (11741988_at) / RFU 11764193_at / Fold change /veh 11764193_at / RFU TMEM53 (11763286_at) / Fold change /veh TMEM53 (11763286_at) / RFU MAGEB2 (11727129_at) / Fold change /veh MAGEB2 (11727129_at) / RFU TMEM200A (11744735_a_at) / Fold change /veh TMEM200A (11744735_a_at) / RFU CCDC152 (11751479_a_at) / Fold change /veh CCDC152 (11751479_a_at) / RFU FAM211A (11726209_a_at) / Fold change /veh FAM211A (11726209_a_at) / RFU RGS16 (11746705_a_at) / Fold change /veh RGS16 (11746705_a_at) / RFU VCAN (11755009_s_at) / Fold change /veh VCAN (11755009_s_at) / RFU RHOB (11743442_s_at) / Fold change /veh RHOB (11743442_s_at) / RFU RGS16 (11720943_a_at) / Fold change /veh RGS16 (11720943_a_at) / RFU RGS16 (11720944_at) / Fold change /veh RGS16 (11720944_at) / RFU, VPS4B / Fold change vs veh, VPS4B / RFU, CREB1 / Fold change vs veh, CREB1 / RFU, DNAJC13 / Fold change vs veh, DNAJC13 / RFU, GNAQ / Fold change vs veh, GNAQ / RFU, CDK5R1 / Fold change vs veh, CDK5R1 / RFU, ZRANB3 / Fold change vs veh, ZRANB3 / RFU, CUL4A / Fold change vs veh, CUL4A / RFU, CCNY / Fold change vs veh, CCNY / RFU, UFL1 / Fold change vs veh, UFL1 / RFU, COG3 / Fold change vs veh, COG3 / RFU, DIAPH2 / Fold change vs veh, DIAPH2 / RFU, SKA2 / Fold change vs veh, SKA2 / RFU, AFF3 / Fold change vs veh, AFF3 / RFU, LMF1 / Fold change vs veh, LMF1 / RFU, IPO11 / Fold change vs veh, IPO11 / RFU, DFFB / Fold change vs veh, DFFB / RFU, FOXP1 / Fold change vs veh, FOXP1 / RFU, CARD8 / Fold change vs veh, CARD8 / RFU, STRN3 / Fold change vs veh, STRN3 / RFU, ADK / Fold change vs veh, ADK / RFU, RASSF2 / Fold change vs veh, RASSF2 / RFU, WIPF1 / Fold change vs veh, WIPF1 / RFU, LARP1B / Fold change vs veh, LARP1B / RFU, RASA1 / Fold change vs veh, RASA1 / RFU, RB1 / Fold change vs veh, RB1 / RFU, PPFIA1 / Fold change vs veh, PPFIA1 / RFU, MAT2A / Fold change vs veh, MAT2A / RFU, CCT5 / Fold change vs veh, CCT5 / RFU, WDR92 / Fold change vs veh, WDR92 / RFU, CUX1 / Fold change vs veh, CUX1 / RFU, TTC7A / Fold change vs veh, TTC7A / RFU, TMEM135 / Fold change vs veh, TMEM135 / RFU, DEPTOR / Fold change vs veh, DEPTOR / RFU, CPM / Fold change vs veh, CPM / RFU, DNAJB6 / Fold change vs veh, DNAJB6 / RFU, CACNA2D3 / Fold change vs veh, CACNA2D3 / RFU, DTX4 / Fold change vs veh, DTX4 / RFU, TFCP2 / Fold change vs veh, TFCP2 / RFU, GMCL1 /// GMCL1P1 / Fold change vs veh, GMCL1 /// GMCL1P1 / RFU, AEBP2 / Fold change vs veh, AEBP2 / RFU, SNHG1 /// SNORD22 /// SNORD25 /// SNORD26 /// SNORD27 /// SNORD28 /// SNORD29 /// SNORD31 / Fold change vs veh, SNHG1 /// SNORD22 /// SNORD25 /// SNORD26 /// SNORD27 /// SNORD28 /// SNORD29 /// SNORD31 / Fold change (Aza/veh), C12orf56 (ProbeSet 11735607_a_at) / Fold change (ACY-1035/veh), C12orf56 (ProbeSet 11735607_a_at) / Fold change (Aza/veh), FGFR1OP (ProbeSet 11751329_s_at) / Fold change (ACY-1035/veh), FGFR1OP (ProbeSet 11751329_s_at) / Fold change (Aza/veh), VPS36 (ProbeSet 11739960_a_at) / Fold change (ACY-1035/veh), VPS36 (ProbeSet 11739960_a_at) / RFU SYPL1 (11715823_x_at) / Fold change /veh SYPL1 (11715823_x_at) / RFU IGFBP7 (11715501_s_at) / Fold change /veh IGFBP7 (11715501_s_at) / RFU REEP3 (11722064_at) / Fold change /veh REEP3 (11722064_at) / RFU IGLL1 (11728026_x_at) / Fold change /veh IGLL1 (11728026_x_at): dose or concentration left out as unconfirmed
# Details: MV-4-11 cells, 48 hours
structure (smiles),measurement,value
Nc1ncn([C@@H]2O[C@H](CO)[C@@H](O)[C@H]2O)c(=O)n1 [azacitidine],RFU ABCC12 (11746883_a_at),6.52 RFU
